Values of other authors in patent publication US20230067402A1, “IS[…] T[…] ANALOGS THEREOF” (Biomind Labs Inc, priority 2021, published 2023).

Conditions: intramuscular administration

## CN(C)CCc1c[nH]c2ccccc12 [DMT, N,N-dimethyltryptamine]
  time to peak concentration in the blood: 10 to 15 min
After one hour
  blood level after one hour: undetectable levels
